This is an account of results in PMC9005747, “Application of per-Residue Energy Decomposition to Design Peptide Inhibitors of PSD95 GK Domain” (Frontiers in Molecular Biosciences, 2022).

Read-outs that look alike come from different tables or passages of the source. Non-standard residues stand in square brackets, D forms with d. Primed or numbered codes have the meaning given here. No end group written: not given here. FITC′ = fluorescein isothiocyanate label on the N-terminus; pS = N[C@@H](COP(=O)(O)O)C(=O)O

The target of assay [1] is GK domain of PSD95. The following applies: fluorescence polarization assay, cited from earlier work. From the text: page 6: 2. Supplementary Tables Supplementary Table 1.
On the technique in general: Fluorescence polarisation rises when a labelled molecule tumbles more slowly, as on binding a larger partner.

Assay [2] concerns the target GK domain of PSD95. The following applies: isothermal titration calorimetry assay; ref Zhu et al., 2017; cited from earlier work.
Assay [3] has as its target T1, His6-tagged PSD95 GK domain (a.a. 531-713) (UniProt P31016 531-713).
T1 construct: postsynaptic density protein 95 (PSD95, encoded by DLG4), guanylate kinase (GK) domain, a.a; 531-713; In the MST assay the protein was labelled on its His tag with the RED-Tris-NTA kit; The PDB entries are cited crystal structures of PSD95 GK with peptides; also called His-GK; His-PSD95 GK; source: E. coli BL21 (DE3), purified (Ni-NTA, size-exclusion chromatography); not shown: His6, N-terminal, …
Briefly: fluorescence polarisation; direct titration: 10 nM FITC-SAPAP constant, His-GK 0 to 20 uM; 50 mM Tris, 100 mM NaCl, pH 7.5; 384-well plates, 1-h incubation. As to conditions: both partners purified.

T1 sequence (P31016 531-713): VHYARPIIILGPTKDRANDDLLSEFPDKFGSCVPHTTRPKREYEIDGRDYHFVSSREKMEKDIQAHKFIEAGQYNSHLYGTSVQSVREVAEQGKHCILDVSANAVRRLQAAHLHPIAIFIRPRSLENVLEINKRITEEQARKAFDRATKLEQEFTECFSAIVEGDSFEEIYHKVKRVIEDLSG

On to LSRVK[pS]LKKSLRQSF [p-LGL2], for which the Kd on GK domain of PSD95 [1] (ref Zhu et al., 2014) is 10200 ± 1300 nM.

RIRREEYRRAINGQSMKL: the Kd at GK domain of PSD95 [2] is 1860 ± 310 nM. With RIRREEYRRAINGQSFDLS, on GK domain of PSD95 [2], the Kd is 660 ± 130 nM. On to GRRH[pS]MENLELMKLTPEK [p-LGN], for which the Kd at GK domain of PSD95 [1] (ref Zhu et al., 2011) is 530 ± 90 nM. With AELEGGPYSPLGKDYRKAEGEREEEG [MAP1A], the Kd at GK domain of PSD95 [1] (ref Xia et al., 2017) was 12100 ± 200 nM.

AARRE[pS]YLKATQPSL [p-SAPAP]: at GK domain of PSD95 [2], the Kd was 80 ± 10 nM.

B1: FITC-labeled SAPAP peptide FITC-AARRE(pS)YLKATQ (peptide)
peptide: {FITC′}-AARRE[pS]YLKATQ
notes: phosphorylated SAPAP peptide; SAPAP1 (DLGAP1, GKAP) is the member it names elsewhere; also called FITC-SAPAP; FITC-SAPAP probe; source: synthetic peptide, bought: China Peptides
In turn, B1 came in with a Kd in assay [3] of 4280 nM.

The term Kd denotes the free concentration of one partner at which half of the binding sites on the other are occupied at equilibrium, for simple one-to-one binding.
